# Source: US20250188069A1, “COMPOUNDS AND METHODS FOR DEGRADING CASEIN KINASE 1 ALPHA” (PIN THERAPEUTICS, INC., priority 2022, published 2025)
# Structures can show the parent of a compound that is named as a salt.
# System: MV-4-11 cells
# Assay: AML cell viability assay (RealTime-Glo)
# Type: cell-based
# Conditions: Homo sapiens, MV4-11; IC50 class; MV-4-11 cells, RealTime-Glo after 44 hrs of treatment (TABLE 4); read-out: Cell viability classification
row,IC50,SMILES
1,0.1 to 1 µM,"O=C1CCC(N2Cc3c(cccc3N(CCC3CC3)[C@H]3CC[C@@H](NCC4(F)CCC4)CC3)C2=O)C(=O)N1 (stereo partly drawn) [Compound 613A, 3-{4-[(2-cyclopropylethyl)[(1s,4s)-4-{[(1-fluorocyclobutyl)methyl]amino}cyclohexyl]amino]-1-oxo-3H-isoindol-2-yl}piperidine-2,6-dione]"
2,0.1 to 1 µM,"O=C1CCC(N2Cc3c(cccc3N(CCC3CC3)[C@H]3CC[C@H](NCC4(C(F)(F)F)CCC4)CC3)C2=O)C(=O)N1 (stereo partly drawn) [Compound 614, 3-{4-[(2-cyclopropylethyl)[(1r,4r)-4-({[1-(trifluoromethyl)cyclobutyl]methyl}amino)cyclohexyl]amino]-1-oxo-3H-isoindol-2-yl}piperidine-2,6-dione; trifluoro acetate]"
3,> 1 µM,"O=C1CCC(N2Cc3c(cccc3N(CCC3CC3)[C@H]3CC[C@@H](NCC4(C(F)(F)F)CCC4)CC3)C2=O)C(=O)N1 (stereo partly drawn) [Compound 614A, 3-{4-[(2-cyclopropylethyl)[(1s,4s)-4-({[1-(trifluoromethyl)cyclobutyl]methyl}amino)cyclohexyl]amino]-1-oxo-3H-isoindol-2-yl}piperidine-2,6-dione; trifluoro acetate]"
4,0.1 to 1 µM,"O=C1CCC(N2Cc3c(cccc3N(CCC3CC3)[C@H]3CC[C@@H](NCC4(F)COC4)CC3)C2=O)C(=O)N1 (stereo partly drawn) [Compound 616A, 3-{4-[(2-cyclopropylethyl)[(1s,4s)-4-{[(3-fluorooxetan-3-yl)methyl]amino}cyclohexyl]amino]-1-oxo-3H-isoindol-2-yl}piperidine-2,6-dione; trifluoroacetate]"
5,0.1 to 1 µM,"O=C1CCC(N2Cc3c(ccc(F)c3N(CCC3CC3)[C@H]3CC[C@H](NCC4(C(F)(F)F)CC4)CC3)C2=O)C(=O)N1 (stereo partly drawn) [Compound 619, 3-(4-((2-cyclopropylethyl)(4-(((1-(trifluoromethyl)cyclopropyl)methyl)amino)cyclohexyl)amino)-5-fluoro-1-oxoisoindolin-2-yl)piperidine-2,6-dione]"
6,> 1 µM,"O=C1CCC(N2Cc3c(N(CCC4CC4)[C@H]4CC[C@H](NCC5(C(F)(F)F)CC5)CC4)ccc(F)c3C2=O)C(=O)N1 (stereo partly drawn) [Compound 627, 3-{4-[(2-cyclopropylethyl)[(1r,4r)-4-({[1-(trifluoromethyl)cyclopropyl]methyl}amino)cyclohexyl]amino]-7-fluoro-1-oxo-3H-isoindol-2-yl}piperidine-2,6-dione]"
7,> 1 µM,"O=C1CCC(N2Cc3c(N(CCC4CC4)[C@H]4CC[C@@H](NCC5(C(F)(F)F)CC5)CC4)ccc(F)c3C2=O)C(=O)N1 (stereo partly drawn) [Compound 627A, 3-{4-[(2-cyclopropylethyl)[(1s,4s)-4-({[1-(trifluoromethyl)cyclopropyl]methyl}amino)cyclohexyl]amino]-7-fluoro-1-oxo-3H-isoindol-2-yl}piperidine-2,6-dione]"
8,0.1 to 1 µM,"O=C1CCC(N2Cc3c(cccc3N(CCCCC(F)(F)F)[C@H]3CC[C@H](NCC4(C(F)(F)F)CC4)CC3)C2=O)C(=O)N1 (stereo partly drawn) [Compound 628, 3-(1-oxo-4-{[(1r,4r)-4-({[1-(trifluoromethyl)cyclopropyl]methyl}amino)cyclohexyl](5,5,5-trifluoropentyl)amino}-3H-isoindol-2-yl)piperidine-2,6-dione; trifluoroacetate]"
9,> 1 µM,"O=C1CCC(N2Cc3c(cccc3N(CCCCC(F)(F)F)[C@H]3CC[C@@H](NCC4(C(F)(F)F)CC4)CC3)C2=O)C(=O)N1 (stereo partly drawn) [Compound 628A, 3-(1-oxo-4-{[(1s,4s)-4-({[1-(trifluoromethyl)cyclopropyl]methyl}amino)cyclohexyl](5,5,5-trifluoropentyl)amino}-3H-isoindol-2-yl)piperidine-2,6-dione; trifluoroacetate]"
10,> 1 µM,"O=C1CCC(N2Cc3c(cccc3N(CCCCC(F)(F)F)[C@H]3CC[C@@H](NCCC(F)(F)F)CC3)C2=O)C(=O)N1 (stereo partly drawn) [Compound 636A, 3-(1-oxo-4-{[(1s,4s)-4-[(3,3,3-trifluoropropyl)amino]cyclohexyl](5,5,5-trifluoropentyl)amino}-3H-isoindol-2-yl)piperidine-2,6-dione; trifluoroacetate]"

# Same assay, conditions: Homo sapiens, MV4-11; IC50 class; MV-4-11 cells, RealTime-Glo after 44 hrs of treatment (TABLE 5); read-out: Cell viability classification
row,IC50,SMILES
1,< 0.1 µM,O=C1CCC(N2Cc3c(cccc3N(CCC3CC3)[C@H]3CC[C@H](NCCCC(F)(F)F)CC3)C2=O)C(=O)N1 (stereo partly drawn) [Compound 642]
2,> 1 µM,O=C1CCC(N2Cc3c(cccc3N(CCC3CC3)[C@H]3CC[C@H](NCC(F)(F)C(F)(F)F)CC3)C2=O)C(=O)N1 (stereo partly drawn) [Compound 644]
3,< 0.1 µM,"O=C1CCC(N2Cc3c(cccc3N(CCC3CC3)[C@H]3CC[C@H](NCCC4(C(F)(F)F)CC4)CC3)C2=O)C(=O)N1 (stereo partly drawn) [Compound 645, 3-{4-[(2-cyclopropylethyl)[(1r,4r)-4-({2-[1-(trifluoromethyl)cyclopropyl]ethyl}amino)cyclohexyl]amino]-1-oxo-3H-isoindol-2-yl}piperidine-2,6-dione trifluoroacetic acid]"
4,< 0.1 µM,O=C1CCC(N2Cc3c(cccc3N(CCC3CC3)[C@H]3CC[C@H](NCCOC(F)(F)F)CC3)C2=O)C(=O)N1 (stereo partly drawn) [Compound 647]
5,< 0.1 µM,"CCCN(c1cccc2c1CN(C1CCC(=O)NC1=O)C2=O)[C@H]1CC[C@H](NCCC(F)(F)F)CC1 (stereo partly drawn) [Compound 648, 3-(1-oxo-4-{propyl[(1r,4r)-4-[(3,3,3-trifluoropropyl)amino]cyclohexyl]amino}-3H-isoindol-2-yl)piperidine-2,6-dione trifluoroacetic acid]"
6,0.1 to 1 µM,"O=C1CCC(N2Cc3c(cccc3N(CC3CCC3)[C@H]3CC[C@H](NCCC(F)(F)F)CC3)C2=O)C(=O)N1 (stereo partly drawn) [Compound 649, 3-{4-[(cyclobutylmethyl)[(1r,4r)-4-[(3,3,3-trifluoropropyl)amino]cyclohexyl]amino]-1-oxo-3H-isoindol-2-yl}piperidine-2,6-dione trifluoroacetic acid]"
7,0.1 to 1 µM,"O=C1CCC(N2Cc3c(cccc3N(CC3CC3)[C@H]3CC[C@H](NCC4(C(F)(F)F)CC4)CC3)C2=O)C(=O)N1 (stereo partly drawn) [Compound 653, 3-(4-((cyclopropylmethyl)((1r,4r)-4-(((1-(trifluoromethyl)cyclopropyl)methyl)amino)cyclohexyl)amino)-1-oxoisoindolin-2-yl)piperidine-2,6-dione formate]"
8,0.1 to 1 µM,"O=C1CCC(N2Cc3c(cccc3N(CC3CCC3)[C@H]3CC[C@H](NCC4(C(F)(F)F)CC4)CC3)C2=O)C(=O)N1 (stereo partly drawn) [Compound 654, 3-(4-((cyclobutylmethyl)((1r,4r)-4-(((1-(trifluoromethyl)cyclopropyl)methyl)amino)cyclohexyl)amino)-1-oxoisoindolin-2-yl)piperidine-2,6-dione]"
9,0.1 to 1 µM,"O=C1CCC(N2Cc3c(cccc3N(CCC3CC3)C3CCC4(CC3)COCCN4)C2=O)C(=O)N1 (stereo not drawn) [Compound 679, 3-(4-((2-cyclopropylethyl)(4-oxa-1-azaspiro[5.5]undecan-9-yl)amino)-1-oxoisoindolin-2-yl)piperidine-2,6-dione]"
10,0.1 to 1 µM,"CN(CCC(F)F)[C@H]1CC[C@@H](N(CCC2CC2)c2cccc3c2CN(C2CCC(=O)NC2=O)C3=O)CC1 (stereo partly drawn) [Compound 683A, 3-(4-((2-cyclopropylethyl)((1s,4s)-4-((3,3-difluoropropyl)(methyl)amino)cyclohexyl)amino)-1-oxoisoindolin-2-yl)piperidine-2,6-dione bis(2,2,2-trifluoroacetate)]"
11,0.1 to 1 µM,"O=C1CCC(N2Cc3c(cccc3N(CCC3CC3)[C@H]3CC[C@H](CNCCC(F)(F)F)CC3)C2=O)C(=O)N1 (stereo partly drawn) [Compound 708, 3-(4-((2-cyclopropylethyl)((1r,4r)-4-(((3,3,3-trifluoropropyl)amino)methyl)cyclohexyl)amino)-1-oxoisoindolin-2-yl)piperidine-2,6-dione]"
12,< 0.1 µM,"O=C1CCC(N2Cc3c(cccc3N(CCC3CC3)[C@H]3CC[C@@H](CNCCC(F)(F)F)CC3)C2=O)C(=O)N1 (stereo partly drawn) [Compound 708A, 3-(4-((2-cyclopropylethyl)((1s,4s)-4-(((3,3,3-trifluoropropyl)amino)methyl)cyclohexyl)amino)-1-oxoisoindolin-2-yl)piperidine-2,6-dione]"
13,0.1 to 1 µM,"O=C1CCC(N2Cc3c(cccc3N(CCC3CC3)[C@H]3CC[C@H](N4CCC5(C4)CC5(F)F)CC3)C2=O)C(=O)N1 (stereo partly drawn) [Compound 711, 3-(4-((2-cyclopropylethyl)((1r,4r)-4-(1,1-difluoro-5-azaspiro[2.4]heptan-5-yl)cyclohexyl)amino)-1-oxoisoindolin-2-yl)piperidine-2,6-dione 2,2,2-trifluoroacetate]"
14,> 1 µM,"O=C1CCC(N2Cc3c(cccc3N(CCC3CC3)[C@H]3CC[C@@H](N4CCC5(C4)CC5(F)F)CC3)C2=O)C(=O)N1 (stereo partly drawn) [Compound 711A, 3-(4-((2-cyclopropylethyl)((1s,4s)-4-(1,1-difluoro-5-azaspiro[2.4]heptan-5-yl)cyclohexyl)amino)-1-oxoisoindolin-2-yl)piperidine-2,6-dione 2,2,2-trifluoroacetate]"
15,0.1 to 1 µM,"O=C1CCC(N2Cc3c(cccc3N(CCC3CC3)[C@H]3CC[C@H](N4CC[C@H](C(F)(F)F)C4)CC3)C2=O)C(=O)N1 (stereo partly drawn) [Compound 712, 3-(4-((2-cyclopropylethyl)((1S,4r)-4-((S)-3-(trifluoromethyl)pyrrolidin-1-yl)cyclohexyl)amino)-1-oxoisoindolin-2-yl)piperidine-2,6-dione 2,2,2-trifluoroacetate]"
16,> 1 µM,"O=C1CCC(N2Cc3c(cccc3N(CCC3CC3)[C@H]3CC[C@@H](N4CC[C@H](C(F)(F)F)C4)CC3)C2=O)C(=O)N1 (stereo partly drawn) [Compound 712A, 3-(4-((2-cyclopropylethyl)((1R,4s)-4-((S)-3-(trifluoromethyl)pyrrolidin-1-yl)cyclohexyl)amino)-1-oxoisoindolin-2-yl)piperidine-2,6-dione 2,2,2-trifluoroacetate]"
17,0.1 to 1 µM,"O=C1CCC(N2Cc3c(cccc3N(CCC3CC3)[C@H]3CC[C@H](N4CC[C@@H](C(F)(F)F)C4)CC3)C2=O)C(=O)N1 (stereo partly drawn) [Compound 713, 3-(4-((2-cyclopropylethyl)((1R,4r)-4-((R)-3-(trifluoromethyl)pyrrolidin-1-yl)cyclohexyl)amino)-1-oxoisoindolin-2-yl)piperidine-2,6-dione bis(2,2,2-trifluoroacetate)]"
